Laboratory results reported in patent US12029751B2, “Therapeutic agent for nervous system disease” (OSAKA UNIVERSITY, priority 2017, dated 2024).

Experiments:
[1] = test system: rat sciatic nerve crush injury model; experiment: Nerve regeneration after sciatic nerve injury (axons, myelinated axons, myelination rate); type: in vivo; details: for Myelination ratio / Number of axons / Number of myelinated axons: POD14
Source text: Six-week-old male Wistar rats (about 200 g) were used. The left sciatic nerve was exteriorized, and crush injury of the sciatic nerve was made on the proximal side by forceps. The nerve was crushed for 10 seconds three times at 10-second intervals. The fascia and skin were sutured using 3-0 nylon. A non-injury group which underwent only sciatic nerve exposure, an untreated group, and a methylcobalamin treatment group were compared. To administer methylcobalamin continuously, an osmotic minipump was placed and left in the dorsal subcutaneous space, and methylcobalamin was administered at a dose of 1 mg/kg/day. In an untreated group, physiological saline was administered instead of methylcobalamin according to the same procedure.
At 1, 3, 7, and 14 days after the surgery, rats were anesthetized with an anesthetic agent. The left sciatic nerve was collected, fixed with 4% PFA for 7 days and with 20% sucrose for 24 hours, and the fixed nerve was freeze-embedded. The embedded tissue was sliced into a 5-μm-thick slice in a nerve short-axis direction and placed on a glass slide. Slices were obtained from 5 positions of 2.5 mm in the proximal direction from an injured region, the injured region, and 2.5, 5.0, and 7.5 mm in the distal direction. The slices were dried for 1 hour and fixed with 95% methanol for 30 minutes. The fixed slices were blocked and allowed to react with primary antibodies at 4° C. overnight. The cells were further allowed to react with a secondary antibody at room temperature for 1 hour so that the nuclei were labeled with DAPI.
The primary antibodies used were a mouse anti-CD68 monoclonal antibody (Abcam), a rabbit anti-iNOS monoclonal antibody (Abcam), a rabbit anti-CD206 monoclonal antibody (Abeam), a rabbit anti-neurofilament 200 (NF 200) polyclonal antibody (SIGMA), and a mouse anti-myelin basic protein (MBP) monoclonal antibody (Calbiochem). The secondary antibodies used were an Alexa 488-labeled goat anti-mouse IgG antibody (Life Technologies), an Alexa 488-labeled goat anti-rabbit IgG antibody (Life Technologies), an Alexa 568-labeled goat anti-mouse IgG antibody (Life Technologies), and an Alexa 568-labeled goat anti-rabbit IgG antibody (Life Technologies).
Effects of methylcobalamin on nerve regeneration after sciatic nerve injury were analyzed by an immunohistological evaluation method. Specifically, the analysis was carried out as follows. Transvers sections of an injured sciatic nerve obtained at 2 weeks after sciatic nerve injury were used for evaluation. As in the macrophage evaluation, evaluations were carried out for the sections at 2.5 mm in the proximal direction from an injury site, the injury site, and 2.5, 5.0, and 7.5 mm in the distal direction. Regenerated axons were labeled with NF 200, and myelin sheaths were labeled with MBP. The myelination rate of the regenerated axons was calculated by the following formula: Myelination rate (%)=number of myelinated axons per mm^2/number of axons per mm^2×100. More specifically, the analysis was performed in the same manner as in Example 7.

[2] = test system: rat spinal cord injury model; experiment: BBB score in rat spinal cord injury model (lateral hemisection model); type: in vivo; details: 1 mg/kg/day osmotic minipump; for BBB score: left lower extremity
Method: Six-week-old female Wistar rats were used. The rats were purchased from Charles River Laboratories Japan, Inc. (Yokohama, Japan). Anesthesia was performed as follows. A 1:10 dilution of a mixture of three anesthetic agents in physiological saline was administered by intraperitoneal injection. One dose consisted of 0.2 mg/kg of midazolam, 0.015 mg/kg of medetomidine, and 0.25 mg/kg of butorphanol. The rat was placed in a prone position on an operating table, and a dorsal midline incision was made. The T10 vertebral arch was removed to expose the posterior face of the spinal cord, and the left spinal cord was hemisected using a sharp-pointed surgical scalpel (spitz mess). The skin was sutured using a 4-0 nylon thread and the surgery was completed. A comparison was made among three groups: a methylcobalamin treatment group, an untreated group, and a sham group. Immediately after the surgical operation, an osmotic minipump filled with methylcobalamin (1 mg/kg/day) or physiological saline was placed for the methylcobalamin treatment group and the untreated group, respectively, and left in the left dorsal subcutaneous space. The sham group underwent only resection of the Th10 vertebral arch.
Each rat was separately accommodated in a cage, allowed to walk freely, and observed for 5 minutes. According to a conventional method, left-lower-extremity function was evaluated using scores of 0 (no locomotion) to 21 (normal locomotion). The evaluations were performed before surgery, and at 1, 7, 14, 21, and 28 days after the surgery.

[3] = 5.0 and 7.5 mm in the distal direction, 2 weeks after injury
[4] = 2.5 mm in the proximal direction
[5] = injury site, 2 weeks after sciatic nerve injury, 1 mg/kg/day

`C/C1=C2/[N-][C@H]([C@H](CC(N)=O)[C@@]2(C)CCC(=O)NC[C@@H](C)OP(=O)([O-])O[C@H]2[C@@H](O)[C@@H](n3cnc4cc(C)c(C)cc43)O[C@@H]2CO)[C@]2(C)N=C(/C(C)=C3N=C(/C=C4N=C1[C@@H](CCC(N)=O)C\4(C)C)[C@@H](CCC(N)=O)[C@]\3(C)CC(N)=O)[C@@H](CCC(N)=O)[C@]2(C)CC(N)=O.[CH3-].[Co+3]` [MeCbl, methylcobalamin] was tested, and the “myelination rate as compared to the untreated group” value [1, 3] was “significant differences”, the “numbers of axons as compared to the untreated group” value [1, 3] was “significant differences” and the Myelination ratio ([1]; 2.5 mm in the distal direction) was 0.531. For the same compound, the Number of axons ([1]; 2.5 mm in the distal direction) was 14478, the “Number of myelinated axons” value ([1]; 2.5 mm in the distal direction) was 7620 and the Myelination ratio [1, 4] was 0.975. For the same compound, the Number of axons [1, 4] was 16251, the “Number of myelinated axons” value [1, 4] was 15838 and the Myelination ratio ([1]; 5.0 mm in the distal direction) was 0.253. The Number of axons ([1]; 5.0 mm in the distal direction) was 16663, the “Number of myelinated axons” value ([1]; 5.0 mm in the distal direction) was 4400 and the Myelination ratio ([1]; 7.5 mm in the distal direction) was 0.163. For the same compound, the Number of axons ([1]; 7.5 mm in the distal direction) was 14678, the “Number of myelinated axons” value ([1]; 7.5 mm in the distal direction) was 2473 and the Myelination ratio ([1]; Injury site) was 0.691. For the same compound, the Number of axons ([1]; Injury site) was 14210, the “Number of myelinated axons” value ([1]; Injury site) was 9785 and the “numbers of axons as compared to the untreated group” value [1, 5] was “significantly improved”. The “numbers of myelinated axons as compared to the untreated group” value [1, 5] was “significantly improved”, the BBB score ([2]; 0 days after surgery (before surgery)) was 21 and the “left-lower-extremity motor function (BBB score) as compared to the untreated group” value ([2]; 14, 21, and 28 days after the surgery) was “significantly improved”. The BBB score ([2]; 1 day after surgery) was 0.17, the BBB score ([2]; 7 days after surgery) was 8.33 and the BBB score ([2]; 14 days after surgery) was 15.50. The BBB score ([2]; 21 days after surgery) was 16.33 and the BBB score ([2]; 28 days after surgery) was 17.
